Laboratory results published in PMC9179341, “Design of New Potent and Selective Thiophene-Based KV1.3 Inhibitors and Their Potential for Anticancer Activity” (Cancers, 2022).
“Also recorded” adds a separate entry of the source.

What was measured:
Panc-1 cells = assay: Cell proliferation (culture confluency, IncuCyte) in 2D culture, Panc-1; format: cell-based; settings: 100 µM, confluence by live cell imaging
Experimental: (§1) Cell lines Panc-1 (ACC 783) and Colo-357 (CVCL_0221) were obtained through the validated collection of the pHioniC consortium (MSC-ITN 813834). Both cell lines were grown in RPMI1640, supplemented with 1 mM sodium pyruvate and 1% Glutamax (all Gibco Thermo-Fisher, Waltham, MA USA) 10%FBS (BioChrom, Berlin, Germany), at 5% CO2 and 37 °C in a humidified atmosphere.
For cell proliferation assays, cells were seeded at a density of 10,000 cells/well in 96-well flat bottom culture plates (Corning, Kaiseslautern, Germany) and proliferation was measured through culture confluency using an IncuCyte device (Sartorius, Göttingen, Germany). Every hour, two phase contrast images per well were acquired, and a confluency mask was generated by training the analysis algorithm using representative images. Every image was then analyzed using the obtained parameters to determine culture confluency. Treatments were then added when cells reached a confluency of ~30% (Panc-1) or ~55% (Colo-357), and proliferation was determined for the following 60 h. Proliferation is reported as confluency increase with respect to the start of the treatment.

Panc-1 tumor spheroids = assay: Apoptosis (caspase 3/7 activity) in Panc-1 tumor spheroids; format: cell-based; settings: with 8.9 µM cycloheximide
Experimental: as §1
Spheroids were cultured in round bottom ultra-low attachment 96-well plates (Corning). The optimal seeding densities were empirically determined (8000 cells/well for Colo-357 or 10,000 cells/well for Panc-1 spheroids. The cells were suspended in 2% Matrigel (Corning), centrifuged at 1000× g for 10 min and the spheroids were allowed to form in the incubator. Once the spheroids were formed, the treatments indicated together with 8.9 µM cycloheximide (as apoptosis sensitizer) were added and apoptosis was determined by live imaging in the Incucyte system in real time for approximately 60 h using Caspase-3/7 green reagent (Sartorius) as a reporter of apoptosis, which crosses the cell membrane and is cleaved by the activated Caspase-3/7, resulting in the fluorescent staining of nuclear DNA. Apoptosis on Panc-1 tumor spheroids is presented as integrated green fluorescence in the whole spheroid.

[1] = Turbidimetric solubility assay; format: physicochemical; settings: for solubility: pH 7.4, aqueous buffer, kinetic from dmso stock, phosphate-buffered saline, final 1% DMSO, read-out: Concentration at which compound was soluble (turbidimetric solubility test)
Experimental: For the phosphate-buffered saline, we dissolved 2.38 g of disodium hydrogen phosphate dodecahydrate, 0.19 g of potassium dihydrogen phosphate, and 8.0 g of sodium chloride in water and diluted it to 1000 mL with the same solvent. Then we adjusted the pH to 7.4. The stock DMSO solutions of the compounds were prepared at concentrations of 50 mM, 20 mM, 10 mM, and 1 mM. The final solutions (500 µM, 200 µM, 100 µM, and 10 µM) were prepared by adding 2 µL of the stock DMSO solution to 198 µL of phosphate-buffered saline. The absorbance (area scan) was measured at 620 nm for sample volume of 200 µL and the appearance of the solutions was checked by visual inspection.

KV1.3 = KV1.3 (Homo sapiens, UniProt P22001); assay: KV1.3 inhibition, HiClamp on Xenopus laevis oocytes; format: cell-based; settings: Xenopus laevis oocytes (marked * in Table 2)
Chain of KV1.3 (P22001 whole entry): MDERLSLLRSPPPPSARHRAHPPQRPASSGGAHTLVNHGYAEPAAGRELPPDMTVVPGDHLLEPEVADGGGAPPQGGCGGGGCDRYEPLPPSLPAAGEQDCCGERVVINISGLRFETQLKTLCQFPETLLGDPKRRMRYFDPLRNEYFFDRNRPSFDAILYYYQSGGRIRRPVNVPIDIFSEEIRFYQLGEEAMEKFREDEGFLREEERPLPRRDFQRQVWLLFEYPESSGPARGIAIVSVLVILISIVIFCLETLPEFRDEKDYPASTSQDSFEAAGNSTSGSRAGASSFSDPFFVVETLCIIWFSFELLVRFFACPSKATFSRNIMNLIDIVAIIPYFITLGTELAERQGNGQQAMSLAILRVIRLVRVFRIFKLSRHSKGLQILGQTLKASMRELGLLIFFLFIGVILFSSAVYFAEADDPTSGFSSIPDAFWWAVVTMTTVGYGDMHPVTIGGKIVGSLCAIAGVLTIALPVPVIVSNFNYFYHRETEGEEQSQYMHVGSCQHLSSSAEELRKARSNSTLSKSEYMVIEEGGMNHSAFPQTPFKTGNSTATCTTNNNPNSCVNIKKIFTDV
Experimental: Stage V–VI oocytes were isolated by partial ovariectomy from Xenopus laevis frogs (African clawed frogs). […] After anaesthetizing the frogs by a 15-min submersion in 0.1% tricaine methanesulfonate (amino benzoic acid ethyl ester; Merck, Kenilworth, NJ, USA), pH 7.0, the oocytes were collected. The isolated oocytes were then washed with a 1.5 mg/mL collagenase solution for 2 h to remove the follicle layer.
Ion channels (Kv1.x, Kv2.1, Kv4.2, Kv10.1) were expressed in Xenopus laevis oocytes by linearization of the plasmids and subsequent in vitro transcription using a commercial T7 or SP6 mMESSAGE mMACHINE transcription kit (Ambion, Carlsbad, California, USA). Defolliculated Xenopus oocytes were then injected with 20–50 nL of the cRNA at a concentration of 1 ng/nL using a micro-injector (Drummond Scientific1, Broomall, PA, USA). The oocytes were incubated in a solution containing (in mM): NaCl, 96; KCl, 2; CaCl2, 1.8; MgCl2, 2 and HEPES, 5 (pH 7.5), supplemented with 50 mg/L gentamycin sulfate and 90 mg/L theophylline.
Two-electrode voltage-clamp recordings were performed at room temperature (18–22 °C) using a Geneclamp 500 amplifier (Molecular Devices, San Jose, CA, USA) and pClamp data acquisition (Axon Instruments, Union City, CA, USA) and using an integrated digital TEVC amplifier controlled by HiClamp, an automated Voltage-Clamp Screening System (Multi Channel Systems MCS GmbH, Reutlingen, Germany). Whole-cell currents from oocytes were recorded 1–4 days after injection. The bath solution composition was ND96 (in mM): NaCl, 96; KCl, 2; CaCl2, 1.8; MgCl2, 2 and HEPES, 5 (pH 7.5). Voltage and current electrodes were filled with a 3 M solution of KCl in H2O. […] The elicited Kv1.x, Kv2.1, Kv4.2 and Kv10.1 currents were filtered at 0.5 kHz and sampled at 2 kHz using a four-pole low-pass Bessel filter. Leak subtraction was performed using a P/4 protocol.
For the electrophysiological analysis of the compounds, a number of protocols were applied from a holding potential of −90 mV. Currents for Kv1.x, Kv2.1, Kv4.2 and Kv10.1 were evoked by 1 s depolarizing pulses either to 0 mV or to a range of voltage steps between −80 mV and +40 mV. For the analysis of the data, only the inhibition at the 0 mV step was used. The concentration dependency of all compounds was assessed by measuring the current inhibition in the presence of increasing compound concentrations. […] From this stock solution, adequate dilutions with a maximum of 0.5% DMSO were made for testing.
All electrophysiological data (Figure S1) are presented as means ± S.E.M of n ≥ three independent experiments unless otherwise indicated. […] The Dunnett test and one-way ANOVA were performed to calculate the significance of the induced inhibition compared to the control.

[2] = 10 µM in PBS with 1 % final DMSO
[3] = 100 µM in PBS with 1 % final DMSO
[4] = 200 µM in PBS with 1 % final DMSO
[5] = 500 µM in PBS with 1 % final DMSO

| absorbance at 620 nm [1, 2] | absorbance at 620 nm [1, 3] | absorbance at 620 nm [1, 4] | absorbance at 620 nm [1, 5] | solubility [1] [µM] | IC50 (KV1.3) [µM] | Structure (SMILES) | Growth (proliferation) inhibition of Panc-1 cells (Panc-1 cells) | Induction of apoptosis in Panc-1 spheroids (Panc-1 tumor spheroids) |
| --- | --- | --- | --- | --- | --- | --- | --- | --- |
| 0 | 0,003 | 0,003 | 0,014 | ≥ 500 | 1.99 ± 0.61 | COc1ccccc1C(=O)NCC1(c2ccsc2)CCOCC1 [Compound 44] | significantly inhibited; also recorded: moderate growth inhibition | did not induce detectable levels of apoptosis |
| 0 | 0,003 | 0,005 | 0,077 | ≥ 200 | 1.97 | COc1ccc(F)cc1C(=O)NCC1(c2ccccc2)CCOCC1 [Compound 37] | significantly inhibited; also recorded: strong inhibition | did not induce detectable levels of apoptosis |
|  |  |  |  |  | 1.03 ± 0.03 | COc1ccccc1C(=O)NCC1(c2cccs2)CCOC1 (stereo not drawn) [Compound 14] | significantly inhibited; also recorded: strong inhibition | did not induce detectable levels of apoptosis |
| 0,01 | 0,002 | 0,003 | 0,011 | ≥ 500 | 1.2 ± 0.02 | COc1ccccc1C(=O)NCC1(c2cccs2)CCOCC1 [Compound 43] | significantly inhibited; also recorded: strong inhibition | did not induce detectable levels of apoptosis |
